In publication PMC3265250 (Chemotherapy Research and Practice, 2011):
Values after ≈ are worked out from the molar mass of the structure shown.

Assays:
S. aureus ATCC 6538P = test: MIC, microbroth dilution, referential strain ATCC 6538P; format: cell-based, Staphylococcus aureus; details: ATCC 6538P; microbroth dilution, MHB II, 5 × 10^5 CFU/mL, 18 h at 37°C, triplicate
Experimental: (§1) A total number of 24 SA strains were obtained from patients with erythrodermia and 3 reference SA ones from the American Type Culture Collection: 6538P ATCC, 9144 ATCC, and 25923 ATCC (Institute of Experimental Therapy, Wroclaw, Poland). […] Polypropylene 96-well plates (Sigma-Aldrich) were incubated for 18 h at 37°C. MIC was taken as the lowest drug concentration at which a noticeable growth was inhibited. […] The experiments were performed in triplicate.

S. aureus ATCC 9144 = test: MIC, microbroth dilution, referential strain ATCC 9144; format: cell-based, Staphylococcus aureus; details: ATCC 9144; microbroth dilution, MHB II, 5 × 10^5 CFU/mL, 18 h at 37°C, triplicate
S. aureus ATCC 25923 = test: MIC, microbroth dilution, referential strain ATCC 25923; format: cell-based, Staphylococcus aureus; details: ATCC 25923; microbroth dilution, MHB II, 5 × 10^5 CFU/mL, 18 h at 37°C, triplicate
Experimental: as §1

[1] = system: Superantigen negative S. aureus (10); details: for MIC 50% / MIC 90% / MIC Range / MBC Range: superantigen negative clinical isolates (10), triplicate; for MIC 50% / MIC 90% / MIC Range: microbroth dilution, MHB II, 5 × 10^5 CFU/mL, 18 h at 37°C; for MBC Range: more than 99.9% reduction of the initial inoculums
[2] = system: Superantigen positive S. aureus (14); details: for MIC 50% / MIC 90% / MIC Range / MBC Range: superantigen positive clinical isolates (14), triplicate; for MIC 50% / MIC 90% / MIC Range: microbroth dilution, MHB II, 5 × 10^5 CFU/mL, 18 h at 37°C; for MBC Range: more than 99.9% reduction of the initial inoculums
clinical isolates of SA = details: 18 h

Row | Compound | MIC (S. aureus ATCC 6538P) | MIC (S. aureus ATCC 9144) | MIC (S. aureus ATCC 25923) | MBC 50% [1] | MBC 90% [1] | MIC 50% [1] | MIC 90% [1] | MIC Range [1] | MBC Range [1] | MBC 50% [2] | MBC 90% [2] | MIC 50% [2] | MIC 90% [2] | MIC Range [2] | MBC Range [2] | MIC values (range) (clinical isolates of SA) | MICs values (range) (clinical isolates of SA)
1 | CC(C)C[C@H](NC(=O)[C@H](CCCNC(=N)N)NC(=O)CNC(=O)CNC(=O)[C@@H](N)CCCNC(=N)N)C(=O)N[C@H]1CSSC[C@@H](C(=O)N[C@H](C(=O)NCC(=O)N[C@@H](CCCNC(=N)N)C(N)=O)C(C)C)NC(=O)[C@H](C(C)C)NC(=O)[C@@H]2CSSC[C@H](NC(=O)[C@H](Cc3ccc(O)cc3)NC1=O)C(=O)N[C@@H](CCCNC(=N)N)C(=O)N[C@@H](CCCNC(=N)N)C(=O)N[C@@H](CCCNC(=N)N)C(=O)N[C@@H](Cc1ccccc1)C(=O)N2 [Protegrin 1, protegrin 1] | 4 µg/mL (≈ 1.86 µM) | 2 µg/mL (≈ 0.928 µM) | 4 µg/mL (≈ 1.86 µM) | 4 µg/mL (≈ 1.86 µM) | 8 µg/mL (≈ 3.71 µM) | 2 µg/mL (≈ 0.928 µM) | 4 µg/mL (≈ 1.86 µM) | 1 to 4 µg/mL | 2 to 8 µg/mL | 4 µg/mL (≈ 1.86 µM) | 8 µg/mL (≈ 3.71 µM) | 2 µg/mL (≈ 0.928 µM) | 4 µg/mL (≈ 1.86 µM) | 1 to 4 µg/mL | 2 to 8 µg/mL | 1 to 8 µg/mL | 
2 | CCCCCCCCCCCCCCCC(=O)N[C@@H](CCCCN)C(=O)N[C@@H](CCCCN)C(N)=O [Lipopeptide, Pal-KK-NH2] | 2 µg/mL (≈ 3.91 µM) | 2 µg/mL (≈ 3.91 µM) | 4 µg/mL (≈ 7.82 µM) | 4 µg/mL (≈ 7.82 µM) | 8 µg/mL (≈ 15.6 µM) | 2 µg/mL (≈ 3.91 µM) | 4 µg/mL (≈ 7.82 µM) | 1 to 8 µg/mL | 2 to 8 µg/mL | 4 µg/mL (≈ 7.82 µM) | 8 µg/mL (≈ 15.6 µM) | 2 µg/mL (≈ 3.91 µM) | 4 µg/mL (≈ 7.82 µM) | 1 to 8 µg/mL | 2 to 8 µg/mL | 1 to 8 µg/mL | 
3 | CCCCCCCCCC(=O)N[C@@H](Cc1c[nH]c2ccccc12)C(=O)N[C@H](CC(N)=O)C(=O)N[C@@H](CC(=O)O)C(=O)N[C@@H]1C(=O)NCC(=O)N[C@@H](CCCN)C(=O)N[C@@H](CC(=O)O)C(=O)N[C@H](C)C(=O)N[C@@H](CC(=O)O)C(=O)NCC(=O)N[C@H](CO)C(=O)N[C@@H]([C@H](C)CC(=O)O)C(=O)N[C@@H](CC(=O)c2ccccc2N)C(=O)O[C@@H]1C [Daptomycin, daptomycin] | 2 µg/mL (≈ 1.23 µM) | 2 µg/mL (≈ 1.23 µM) | 2 µg/mL (≈ 1.23 µM) | 2 µg/mL (≈ 1.23 µM) | 2 µg/mL (≈ 1.23 µM) | 1 µg/mL (≈ 0.617 µM) | 2 µg/mL (≈ 1.23 µM) | 1 to 4 µg/mL | 1 to 4 µg/mL | 2 µg/mL (≈ 1.23 µM) | 4 µg/mL (≈ 2.47 µM) | 1 µg/mL (≈ 0.617 µM) | 2 µg/mL (≈ 1.23 µM) | 1 to 4 µg/mL | 1 to 4 µg/mL |  | 1 to 4 mg/L
